Results published in ChEMBL document CHEMBL5512654, “Discovery of novel Thymol-TPP antibiotics that eradicate MRSA persisters” (Eur J Med Chem, 2024).
Values after ≈ are worked out from the molar mass of the structure shown.

Tests used:
[1] = test system: Staphylococcus aureus; assay: Antibacterial activity against Staphylococcus aureus ATCC 43300 assessed as inhibition of bacterial growth measured after 18 hrs by microplate reader; assay type: functional; details: read-out: MIC100
[2] = test system: Staphylococcus aureus; assay: Antibacterial activity against methicillin-resistant Staphylococcus aureus USA 300 assessed as inhibition of bacterial growth measured after 18 hrs by microplate reader; assay type: functional; details: read-out: MIC100
[3] = test system: Staphylococcus aureus; assay: Antibacterial activity against methicillin-resistant Staphylococcus aureus USA 3390 assessed as inhibition of bacterial growth measured after 18 hrs by microplate reader; assay type: functional; details: read-out: MIC100
[4] = test system: Escherichia coli; assay: Antibacterial activity against Escherichia coli ATCC 25922 assessed as inhibition of bacterial growth measured after 18 hrs by microplate reader; assay type: functional; details: read-out: MIC100
[5] = test system: Escherichia coli; assay: Antibacterial activity against Escherichia coli 53328 assessed as inhibition of bacterial growth measured after 18 hrs by microplate reader; assay type: functional; details: read-out: MIC100
[6] = test system: Pseudomonas aeruginosa; assay: Antibacterial activity against Pseudomonas aeruginosa ATCC 27853 assessed as inhibition of bacterial growth measured after 18 hrs by microplate reader; assay type: functional; details: read-out: MIC100
[7] = test system: Pseudomonas aeruginosa; assay: Antibacterial activity against Pseudomonas aeruginosa 535 assessed as inhibition of bacterial growth measured after 18 hrs by microplate reader; assay type: functional; details: read-out: MIC100
[8] = test system: Klebsiella pneumoniae; assay: Antibacterial activity against Klebsiella pneumonia ATCC 700603 assessed as inhibition of bacterial growth measured after 18 hrs by microplate reader; assay type: functional; details: read-out: MIC100
[9] = test system: Klebsiella pneumoniae; assay: Antibacterial activity against Klebsiella pneumonia 3026 assessed as inhibition of bacterial growth measured after 18 hrs by microplate reader; assay type: functional; details: read-out: MIC100
[10] = test system: Acinetobacter baumannii; assay: Antibacterial activity against Acinetobacter baumannii ATCC 19606 assessed as inhibition of bacterial growth measured after 18 hrs by microplate reader; assay type: functional; details: read-out: MIC100
[11] = test system: Acinetobacter baumannii; assay: Antibacterial activity against Acinetobacter baumannii ATCC 1318 assessed as inhibition of bacterial growth measured after 18 hrs by microplate reader; assay type: functional; details: read-out: MIC100
[12] = Cytotoxicity against human L02 cells incubated for 72 hrs by MTT dye reduction assay; assay type: toxicity, cell-based

| SMILES | MIC [1] [mg/L] | MIC [2] [mg/L] | MIC [3] [mg/L] | MIC [4] [mg/L] | MIC [5] [mg/L] | MIC [6] [mg/L] | MIC [7] [mg/L] | MIC [8] [mg/L] | MIC [9] [mg/L] | MIC [10] [mg/L] | MIC [11] [mg/L] | IC50 at 72 h [12] [mg/L] |
| --- | --- | --- | --- | --- | --- | --- | --- | --- | --- | --- | --- | --- |
| Cc1cc(O)c(C(C)C)cc1-c1cccc(C#N)c1 | 32 (≈ 127 µM) | 16 (≈ 63.7 µM) | 8 (≈ 31.8 µM) | – | – | – | – | – | – | – | – | – |
| Cc1cc(OC(=O)CCCCCCCC[P+](c2ccccc2)(c2ccccc2)c2ccccc2)c(C(C)C)cc1-c1ccccc1.[Br-] | – | – | – | 4 | 16 | 64 | 32 | 64 | 64 | 16 | 8 | 13.2 |
| Cc1cc(O)c(C(C)C)cc1-c1ccccc1C#N | 16 (≈ 63.7 µM) | 8 (≈ 31.8 µM) | 8 (≈ 31.8 µM) | – | – | – | – | – | – | – | – | – |
| Cc1cc(O)c(C(C)C)cc1-c1cccc(O)c1 | 32 (≈ 132 µM) | 32 (≈ 132 µM) | 32 (≈ 132 µM) | – | – | – | – | – | – | – | – | – |
| Cc1cc(O)c(C(C)C)cc1-c1cccc(C(F)(F)F)c1 | 8 (≈ 27.2 µM) | 4 (≈ 13.6 µM) | 8 (≈ 27.2 µM) | – | – | – | – | – | – | – | – | – |
| COc1ccccc1-c1cc(C(C)C)c(O)cc1C | > 64 | > 64 | > 64 | – | – | – | – | – | – | – | – | – |
| Cc1cc(O)c(C(C)C)cc1-c1ccc(O)cc1 | > 64 | > 64 | > 64 | – | – | – | – | – | – | – | – | – |
| Cc1cc(O)c(C(C)C)cc1-c1ccccc1F | 8 (≈ 32.7 µM) | 16 (≈ 65.5 µM) | 16 (≈ 65.5 µM) | – | – | – | – | – | – | – | – | – |
| Cc1cc(OC(=O)CCC[P+](c2ccccc2)(c2ccccc2)c2ccccc2)c(C(C)C)cc1-c1ccccc1.[Br-] | – | – | – | 16 | 16 | 64 | > 64 | 16 | 32 | 8 | 8 | 5.04 |
| Cc1cc(OC(=O)CCCCCCCCC[P+](c2ccccc2)(c2ccccc2)c2ccccc2)c(C(C)C)cc1-c1ccccc1.[Br-] | – | – | – | 4 | 64 | 32 | 32 | 32 | > 64 | 32 | 16 | 8.67 |
| Cc1cc(O)c(C(C)C)cc1-c1ccccc1C(F)(F)F | 8 (≈ 27.2 µM) | 8 (≈ 27.2 µM) | 16 (≈ 54.4 µM) | – | – | – | – | – | – | – | – | – |
| Cc1cc(OC(=O)CCCCCCC[P+](c2ccccc2)(c2ccccc2)c2ccccc2)c(C(C)C)cc1-c1ccccc1.[Br-] | – | – | – | 4 | 8 | 32 | 32 | 16 | 16 | 8 | 16 | 21.1 |
| Cc1cccc(-c2cc(C(C)C)c(O)cc2C)c1 | 16 (≈ 66.6 µM) | 8 (≈ 33.3 µM) | 8 (≈ 33.3 µM) | – | – | – | – | – | – | – | – | – |
| Cc1cc(OC(=O)CC[P+](c2ccccc2)(c2ccccc2)c2ccccc2)c(C(C)C)cc1-c1ccccc1.[Br-] | – | – | – | 4 | > 64 | > 64 | > 64 | 32 | > 64 | 32 | 16 | 7.96 |
| Cc1cc(O)c(C(C)C)cc1-c1ccc(C#N)cc1 | 16 (≈ 63.7 µM) | 16 (≈ 63.7 µM) | 32 (≈ 127 µM) | – | – | – | – | – | – | – | – | – |
| Cc1cc(OC(=O)CCCC[P+](c2ccccc2)(c2ccccc2)c2ccccc2)c(C(C)C)cc1-c1ccccc1.[Br-] | – | – | – | 16 | 8 | > 64 | > 64 | 32 | 32 | 16 | 8 | 8.31 |
| Cc1cc(O)c(C(C)C)cc1-c1ccc(Cl)cc1 | 8 (≈ 30.7 µM) | 4 (≈ 15.3 µM) | 8 (≈ 30.7 µM) | – | – | – | – | – | – | – | – | – |
| Cc1cc(O)c(C(C)C)cc1-c1ccc(C(=O)O)cc1 | 16 (≈ 59.2 µM) | 16 (≈ 59.2 µM) | 8 (≈ 29.6 µM) | – | – | – | – | – | – | – | – | – |
| Cc1ccccc1-c1cc(C(C)C)c(O)cc1C | 8 (≈ 33.3 µM) | 8 (≈ 33.3 µM) | 16 (≈ 66.6 µM) | – | – | – | – | – | – | – | – | – |
